Biological target: C5aR (Homo sapiens (Human), UniProt P21730)
Assay: Chemotaxis assay using U937 cells (C5aR mediated migration)
Type: cell-based
Settings: read-out: Mig IC50
In short: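 Migration toward 0.03 nM C5a, mixed with varying compound in the lower chamber (HBSS with 1% FBS), was measured over 1.5 h at 37° C through 5 μm filters. Upper chamber held 100,000 U937 cells treated overnight with 0.5 mM cAMP; migrated cells quantified by counts or CyQuant for IC50, SDF-1α as specificity control.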

Chain of C5aR (P21730 whole entry): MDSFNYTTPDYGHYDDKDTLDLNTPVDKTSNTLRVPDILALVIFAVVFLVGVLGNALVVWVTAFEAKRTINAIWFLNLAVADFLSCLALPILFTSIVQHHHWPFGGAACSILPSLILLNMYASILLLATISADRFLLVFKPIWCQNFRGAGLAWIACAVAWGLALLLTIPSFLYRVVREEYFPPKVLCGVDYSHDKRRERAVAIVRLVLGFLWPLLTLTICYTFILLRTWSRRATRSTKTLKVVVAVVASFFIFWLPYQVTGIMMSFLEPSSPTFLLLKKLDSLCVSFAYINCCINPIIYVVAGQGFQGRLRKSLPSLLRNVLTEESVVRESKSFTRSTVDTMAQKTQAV

Compound	IC50 [nM]
CC(=O)Nc1cc(F)c(-c2c3c(nn2-c2c(C)cccc2C)CCN(c2ncc(Cl)cc2Cl)C3)cc1F [Example 1.126]	50 to 500
Cc1cccc(OCC(C)C)c1-n1nc2c(c1-c1ccc(NC(N)=O)c(F)c1)CN(C(C)C1CCCC1)CC2 (centres unmarked) [Example 1.254]	≤ 5
CC[C@H](c1ccccc1)N1CCc2nn(-c3c(C)cccc3C)c(-c3cc(F)c(NC(N)=O)cc3F)c2C1 [Example 1.100]	≤ 5
Cc1cccc(OCC(C)C)c1-n1nc2c(c1-c1cc(F)c(NC(N)=O)cc1F)CN(c1ncccc1F)CC2 [Example 1.178]	≤ 5
NC(=O)Nc1cc(F)c(-c2c3c(nn2-c2ccccc2OCC(F)(F)F)CCN(c2ncc(Cl)cc2Cl)C3)cc1F [Example 1.143]	≤ 5
Cc1cccc(OCC(C)C)c1-n1nc2c(c1-c1ccc(NC(N)=O)c(F)c1)CN(CC1CCOC1)CC2 (centres unmarked) [Example 1.248]	50 to 500
Cc1cccc(OCC(C)C)c1-n1nc2c(c1-c1cc(F)c(NC(N)=O)c(F)c1)CN(c1ncc(C(F)(F)F)cc1F)CC2 [Example 1.263]	50 to 500
Cc1cccc(OCC(C)C)c1-n1nc2c(c1-c1cc(F)c(NC(N)=O)cc1F)CN(c1ncnc3cc[nH]c13)CC2 [Example 1.140]	> 500
CCc1cccc(CC)c1-n1nc2c(c1-c1cc(F)c(NC(N)=O)cc1F)CN(c1ncc(Cl)cc1Cl)CC2 [Example 1.201]	≤ 5
CCc1cccc(CC)c1-n1nc2c(c1-c1cc(F)c(NC(N)=O)cc1F)CN(Cc1ccc(C(F)(F)F)cc1C(F)(F)F)[C@H](C)C2 [Example 1.022]	≤ 5
CCCC(O)C(C)(C)N1CCc2nn(-c3c(CC)cccc3CC)c(-c3cc(F)c(NC(N)=O)cc3F)c2C1 (centres unmarked) [Example 1.090]	≤ 5
CCc1cccc(CC)c1-n1nc2c(c1-c1cc(F)c(NC(N)=O)cc1F)CN(Cc1c(F)cc(C(F)(F)F)cc1C(F)(F)F)CC2 [Example 1.062]	≤ 5
CCc1cccc(CC)c1-n1nc2c(c1-c1cc(F)c(NC(N)=O)cc1F)CN([C@@H](CC)c1ccccc1)CC2 [Example 1.084]	≤ 5
CCc1cccc(CC)c1-n1nc2c(c1-c1cc(F)c(NC(N)=O)cc1F)CN(Cc1ccc(C(F)(F)F)cc1Cl)CC2 [Example 1.057]	≤ 5
CC[C@@H](c1ccccc1)N1CCc2nn(-c3c(C)cccc3C)c(-c3ccc(NC(N)=O)c(F)c3)c2C1 [Example 1.083]	5 to 50
Cc1cccc(OCC(C)C)c1-n1nc2c(c1-c1cc(F)c(NC(N)=O)cc1F)CN(c1ncc(C(F)(F)F)cn1)CC2 [Example 1.164]	≤ 5

Now from value to compound:

IC50 [nM]	Compound
≤ 5	Cc1cccc(OCC(C)C)c1-n1nc2c(c1-c1ccc(NC(N)=O)cc1)CN(c1ccccc1C(C)C)CC2 [Example 1.474]
5 to 50	Cc1cccc(OCC(C)C)c1-n1nc2c(c1-c1ccc(NC(N)=O)cc1)CN(Cc1ccccc1C(C)C)CC2 [Example 1.390]
> 500	COc1cccc(C)c1-n1nc2c(c1-c1ccc(NC3CCCC3)cc1)CN(c1ccccc1C)CC2 [Example 1.490]
5 to 50	Cc1cccc(OCC(C)C)c1-n1nc2c(c1-c1ccc(N)cc1)CN(c1ccccc1C(C)C)CC2 [Example 1.480]
> 500	COc1cccc(C)c1-n1nc2c(c1-c1ccc(N(C)C)cc1)CN(c1ccccc1C)CC2 [Example 1.487]
≤ 5	Cc1cccc(OCC(C)C)c1-n1nc2c(c1-c1ccc(NC(N)=O)cc1)CN(c1ccc(F)cc1C(F)(F)F)CC2 [Example 1.318]
5 to 50	Cc1cccc(C)c1-n1nc2c(c1-c1ccc(N)cc1)CN(c1ccccc1C(C)(C)C)CC2 [Example 1.471]
> 500	Cc1cccc(OCC(C)C)c1-n1nc2c(c1-c1ccc(C(C)(C)O)cc1)CN(c1ccccc1C(C)(C)C)CC2 [Example 1.449]
50 to 500	Cc1cccc(OCC(C)C)c1-n1nc2c(c1-c1ccc(NC(N)=O)c(F)c1)CN(C(C)C)CC2 [Example 1.264]
5 to 50	Cc1cccc(CCC(C)C)c1-n1nc2c(c1-c1ccc(NC(N)=O)cc1)CN(c1ncc(C(F)(F)F)cc1F)CC2 [Example 1.311]

From patent US11478460B2, “Diaryl substituted 6,5-fused ring compounds as C5aR inhibitors” (CHEMOCENTRYX, INC., priority 2017, dated 2022)
